Test results reported in patent US5258406A, “Sulfonimidamides” (priority 1992, dated 1993).
Read-outs that look alike come from different tables or passages of the source.

Key:
Type in all cases: in vivo
6C3HED lymphosarcoma = experiment: animal or person
VRC5 = conditions: oral
Description: (§1) The compounds were tested in C3H mice bearing a 6C3HED lymphosarcoma, also known as the Gardner lymphosarcoma (GLS), and in a variety of human tumor xenografts in CD1 nu/nu mice, including CX-1, LX-1, HXGC3, and VRC5. The 6C3HED lymphosarcoma was obtained from the Division of Cancer Treatment, National […] Institute, Tumor Bank, maintained at E. G. and G. Mason Research (Worcester, Mass.). The CX-1 human colon carcinoma and the LX-1 human lung carcinoma xenografts were obtained from the National Cancer Institute. The HXGC3 and VRC5 human colon xenografts were obtained from Dr. P. J. Houghton, St. Jude Children's Hospital in Memphis (see Br. J. Cancer, 37, 213 (1978)). First passage tumor was stored in liquid nitrogen using standard techniques. The transplanted tumor was reestablished from the Tumor Bank every six months or as needed. The tumor was maintained by serial passage twice weekly in C3H mice.
(§2) In the procedure the tumor was removed from passage animals and minced into 1- to 3-mm square fragments using sterile techniques. Tumor pieces were checked for sterility using both Antibiotic Medium 1 and Brain Heart Infusion (Difco, Detroit, Mich.). Recipient mice were shaved and tumor pieces were implanted subcutaneously in the auxiliary region by trocar. Drug therapy on the appropriate schedule was initiated on the day after tumor implant for 6C3HED and after a seven (7) day delay for xenografts (or other delay as noted in Table 2). The compound being tested was mixed with 2.5% Emulphor EL620 from GAF Corporation (1:40 dilution in saline). Food and water were provided ad libitium. The drug was administered orally in 0.5 ml of 2.5% Emulphor (unless otherwise indicated). The tumor was measured the day after treatment ended with two dimensional measurements (width and length) of the tumor taken using automated digital calipers interfaced to a microcomputer. Approximate weight for the tumor was calculated using the following formula [Worzalla, J. F., et al., Invest. New Drugs, 8, 241 (1990], (tumor weight in mg)=(width in mm)^2 ×(length in mm)/2.
(§3) At least one control group of an equal number of mice was treated with the same volume of 2.5% Emulphor only. The percent inhibition was determined by subtracting the ratio of the mean tumor size of the test group relative to the control group from one and multiplying the result times 100.
(§4) The results of several experiments in mice bearing a 6C3HED lymphosarcoma (or other tumor where indicated) when the indicated compounds were administered are provided in Table 2. In Table 2, column 1 gives the Example number of the compound used, column 2 lists the dose level in mg/kg, column 3 provides the percent inhibition of tumor growth, column 4 gives the number of mice which died relative to the total number of animals in the group, column 5 gives the method of administration of the compound, and column 6 gives the dosage schedule. The protocol used with other tumors was the same as with the 6C3HED lymphosarcoma.

HC1 = tested on: HC1
Description: as §1, §2, §3, §4

LX1 = conditions: oral, DX 10, from day 7 after implant
Description: as §1, §2, §3, §4

**Q.** What does the source list for `CCCCN=S(=O)(NC(=O)Nc1ccc(Cl)cc1)c1ccc(C)cc1` (stereo not drawn) [Example 7, N-[[(4-chlorophenyl)amino]carbonyl]-N'-butyl-4-methylbenzenesulfonimidamide]?
**A.** inhibition in vivo at 18.75 mg/kg (6C3HED lymphosarcoma; Mus musculus, 6C3HED, po, read-out: % inhibition of tumor growth, oral, 18.75 mg/kg, BIDX 10): 21%; inhibition in vivo at 37.5 mg/kg (6C3HED lymphosarcoma; Mus musculus, 6C3HED, po, read-out: % inhibition of tumor growth, oral, 37.5 mg/kg, BIDX 10): 45%; inhibition in vivo at 75 mg/kg (6C3HED lymphosarcoma; Mus musculus, 6C3HED, po, read-out: % inhibition of tumor growth, oral, 75 mg/kg, BIDX 10): 69%; inhibition in vivo at 150 mg/kg (6C3HED lymphosarcoma; Mus musculus, 6C3HED, po, read-out: % inhibition of tumor growth, oral, 150 mg/kg, BIDX 10): 88%; Tox/Tot (mice which died / total) (6C3HED lymphosarcoma; oral, 18.75 mg/kg, BIDX 10): 0/10; Tox/Tot (mice which died / total) (6C3HED lymphosarcoma; oral, 37.5 mg/kg, BIDX 10): 0/10; Tox/Tot (mice which died / total) (6C3HED lymphosarcoma; oral, 75 mg/kg, BIDX 10): 0/10; Tox/Tot (mice which died / total) (6C3HED lymphosarcoma; oral, 150 mg/kg, BIDX 10): 0/10; % inhibition of tumor growth (VRC5; 50 mg/kg, BIDX 10): 0%; Tox/Tot (mice which died / total) (VRC5; 50 mg/kg, BIDX 10): 0/10

**Q.** What does the source list for `NS(=O)(=NC(=O)Nc1ccc(Cl)cc1)c1ccc(CO)cc1` (stereo not drawn) [Example 50]?
**A.** Tox/Tot (mice which died / total) (6C3HED lymphosarcoma; IP, 5 mg/kg, BIDX 8): 0/10; Tox/Tot (mice which died / total) (6C3HED lymphosarcoma; IP, 10 mg/kg, BIDX 8): 0/10; Tox/Tot (mice which died / total) (6C3HED lymphosarcoma; IP, 20 mg/kg, BIDX 8): 0/10; Tox/Tot (mice which died / total) (6C3HED lymphosarcoma; IP, 40 mg/kg, BIDX 8): 1/10; Tox/Tot (mice which died / total) (6C3HED lymphosarcoma; IP, 75 mg/kg, BIDX 8): 0/10; Tox/Tot (mice which died / total) (6C3HED lymphosarcoma; IP, 150 mg/kg, BIDX 8): 0/10; Tox/Tot (mice which died / total) (6C3HED lymphosarcoma; IP, 150 mg/kg, DX 8): 0/10; Tox/Tot (mice which died / total) (6C3HED lymphosarcoma; IP, 300 mg/kg, BIDX 8): 9/10; Tox/Tot (mice which died / total) (6C3HED lymphosarcoma; IP, 300 mg/kg, DX 8): 1/10; inhibition in vivo at 5 mg/kg (6C3HED lymphosarcoma; Mus musculus, 6C3HED, ip, read-out: % inhibition of tumor growth, IP, 5 mg/kg, BIDX 8): 34%; inhibition in vivo at 10 mg/kg (6C3HED lymphosarcoma; Mus musculus, 6C3HED, ip, read-out: % inhibition of tumor growth, IP, 10 mg/kg, BIDX 8): 49%; inhibition in vivo at 20 mg/kg (6C3HED lymphosarcoma; Mus musculus, 6C3HED, ip, read-out: % inhibition of tumor growth, IP, 20 mg/kg, BIDX 8): 72%; inhibition in vivo at 40 mg/kg (6C3HED lymphosarcoma; Mus musculus, 6C3HED, ip, read-out: % inhibition of tumor growth, IP, 40 mg/kg, BIDX 8): 86%; inhibition in vivo at 75 mg/kg (6C3HED lymphosarcoma; Mus musculus, 6C3HED, ip, read-out: % inhibition of tumor growth, IP, 75 mg/kg, BIDX 8): 96%; inhibition in vivo at 150 mg/kg (6C3HED lymphosarcoma; Mus musculus, 6C3HED, ip, read-out: % inhibition of tumor growth, IP, 150 mg/kg, BIDX 8): 99%; inhibition in vivo at 150 mg/kg (6C3HED lymphosarcoma; Mus musculus, 6C3HED, ip, read-out: % inhibition of tumor growth, IP, 150 mg/kg, DX 8): 93%; inhibition in vivo at 300 mg/kg (6C3HED lymphosarcoma; Mus musculus, 6C3HED, ip, read-out: % inhibition of tumor growth, IP, 300 mg/kg, BIDX 8): 100%; inhibition in vivo at 300 mg/kg (6C3HED lymphosarcoma; Mus musculus, 6C3HED, ip, read-out: % inhibition of tumor growth, IP, 300 mg/kg, DX 8): 99%; inhibition in vivo at 75 mg/kg (6C3HED lymphosarcoma; Mus musculus, 6C3HED, po, read-out: % inhibition of tumor growth, oral, 75 mg/kg, BIDX 8): 99%; inhibition in vivo at 150 mg/kg (6C3HED lymphosarcoma; Mus musculus, 6C3HED, po, read-out: % inhibition of tumor growth, oral, 150 mg/kg, BIDX 8): 100%; inhibition in vivo at 300 mg/kg (6C3HED lymphosarcoma; Mus musculus, 6C3HED, po, read-out: % inhibition of tumor growth, oral, 300 mg/kg, BIDX 8): 100%; Tox/Tot (mice which died / total) (6C3HED lymphosarcoma; oral, 75 mg/kg, BIDX 8): 2/10; Tox/Tot (mice which died / total) (6C3HED lymphosarcoma; oral, 150 mg/kg, BIDX 8): 2/10; Tox/Tot (mice which died / total) (6C3HED lymphosarcoma; oral, 300 mg/kg, BIDX 8): 9/10; % inhibition of tumor growth (HC1; IP 0.6 ml, 5 mg/kg, BIDX 14): 6%; Tox/Tot (mice which died / total) (HC1; IP 0.6 ml, 5 mg/kg, BIDX 14): 0/10; % inhibition of tumor growth (HC1; IP 0.6 ml, 10 mg/kg, BIDX 14): 31%; Tox/Tot (mice which died / total) (HC1; IP 0.6 ml, 10 mg/kg, BIDX 14): 0/10; % inhibition of tumor growth (HC1; IP 0.6 ml, 20 mg/kg, BIDX 14): 33%; Tox/Tot (mice which died / total) (HC1; IP 0.6 ml, 20 mg/kg, BIDX 14): 0/10; % inhibition of tumor growth (HC1; IP 0.6 ml, 40 mg/kg, BIDX 14): 71%; Tox/Tot (mice which died / total) (HC1; IP 0.6 ml, 40 mg/kg, BIDX 14): 1/10; % inhibition of tumor growth (HC1; oral, 75 mg/kg, BIDX 10): 46%; Tox/Tot (mice which died / total) (HC1; oral, 75 mg/kg, BIDX 10): 0/9; % inhibition of tumor growth (HC1; oral, 150 mg/kg, BIDX 10): 23%; Tox/Tot (mice which died / total) (HC1; oral, 150 mg/kg, BIDX 10): 2/9; % inhibition of tumor growth (LX1; 150 mg/kg): 32%; Tox/Tot (mice which died / total) (LX1; 150 mg/kg): 0/10; % inhibition of tumor growth (LX1; 300 mg/kg): 34%; Tox/Tot (mice which died / total) (LX1; 300 mg/kg): 0/10; % inhibition of tumor growth (VRC5; 150 mg/kg, DX 10): 27%; Tox/Tot (mice which died / total) (VRC5; 150 mg/kg, DX 10): 0/10; % inhibition of tumor growth (VRC5; 300 mg/kg, DX 10): 59%; Tox/Tot (mice which died / total) (VRC5; 300 mg/kg, DX 10): 0/10
